US20180303824A1, “Compositions for deterring abuse of pharmaceutical products and alcohol” (priority 2015, published 2018)
Structures can show the parent of a compound that is named as a salt.

Assays:
[1] = Electrical conductivity of clay dispersions and drug solutions; type: physicochemical; settings: for Conductivity, Mean / Conductivity, Trial 1 / Conductivity, Trial 2 / Conductivity, Trial 3 / pH, Mean / pH, Trial 1 / pH, Trial 2 / pH, Trial 3: dispersions
[2] = pH 3
Protocol: (§1) Into 10 mL of drug solution (containing 25 mg of tramadol HCl), 50 mg of talc was added and vortexed for 5 seconds followed by centrifugation @1500 rpm for 5 minutes. The solution was filtered through a 0.2 μm syringe filter; 0.5 ml of the supernatant solution was diluted with 10 ml of solvent, and then analyzed for drug concentration by UV spectroscopy @271 nm.
as §1, with “zinc acetate” for “talc”
The solution was filtered through a 0.2 μm syringe filter; 0.5 ml of the supernatant solution was diluted with 10 ml of solvent, and then analyzed for drug concentration by UV spectroscopy @271 nm.

SMILES	Conductivity, Mean [1] [mV]	Conductivity, Trial 1 [1] [mV]	Conductivity, Trial 2 [1] [mV]	Conductivity, Trial 3 [1] [mV]	pH, Mean [1]	pH, Trial 1 [1]	pH, Trial 2 [1]	pH, Trial 3 [1]	% Bound [2] [%]	Cond. ([1]; drug solution in 0.1N HCl, 100 μg/mL) [mV]	Cond. ([1]; drug solution in 0.1N HCl, 200 μg/mL) [mV]	Cond. ([1]; drug solution in 0.1N HCl, 250 μg/mL) [mV]	Cond. ([1]; drug solution in 0.1N HCl, 500 μg/mL) [mV]	Cond. ([1]; drug solution in 0.1N HCl, 1000 μg/mL) [mV]	Cond. ([1]; drug solution in ultrapure deionized water, 100 μg/mL) [mV]	Cond. ([1]; drug solution in ultrapure deionized water, 200 μg/mL) [mV]	Cond. ([1]; drug solution in ultrapure deionized water, 250 μg/mL) [mV]	Cond. ([1]; drug solution in ultrapure deionized water, 500 μg/mL) [mV]	Cond. ([1]; drug solution in ultrapure deionized water, 1000 μg/mL) [mV]
O=C([O-])[O-].[Na+].[Na+] [Na2CO3]	−247.7	−247.4	−248.3	−247.5	11.40	11.40	11.42	11.40	–	–	–	–	–	–	–	–	–	–	–
[Cl-].[Na+] [NaCl]	40.3	34.7	33.6	52.6	6.38	6.48	6.50	6.16	–	–	–	–	–	–	–	–	–	–	–
CC(=O)[O-].CC(=O)[O-].[Zn+2] [Zinc Acetate]	–	–	–	–	–	–	–	–	2.9	–	–	–	–	–	–	–	–	–	–
CN(C)CCOC(c1ccccc1)c1ccccc1 [diphenhydramine HCl]	–	–	–	–	–	–	–	–	–	334.4	333.5	333.2	333.7	332.1	28.2	24.5	21.3	21.3	31.3
